Test results reported in patent US20230106592A1, “METHOD FOR TREATING CANCER USING A COMBINATION OF DNA DAMAGING AGENTS AND ATR INHIBITORS” (Vertex Pharmaceuticals Incorporated, priority 2015, published 2023).

Experiment: Phase I trial, combination with cisplatin: pharmacokinetics
Assay type: in vivo, human
Excerpt: Non-DLT grade 3-4 treatment-related adverse events occurred in 11 pts, including nausea, cytopenia, hypotension, hypoalbuminemia, hypokalemia, elevated liver function tests (LFTs), and drug hypersensitivity. The maximum tolerated combination dose was not reached.

## CNCc1ccc(-c2cc(-c3nc(-c4ccc(S(=O)(=O)C(C)C)cc4)cnc3N)on2)cc1 [Compound A-2]
Both sexes, human, in vivo, intravenous, combination with CIS, read-out: Terminal elimination half-life (converted)
  half-life: ~16 h
Combination with CIS, 90-210 mg/m^2
  PK across the dosage ranges: proportional
In vivo
  Effect of CIS on the pharmacokinetics of Compound A-2: no effect
